How the values were obtained:
[1] = tested on: Pseudomonas aeruginosa UI-18: Wild-type (PA-7); experiment: MIC determination (CLSI), strain PA-7; assay type: cell-based; details: strain PA-7, unit assumed
In short: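 MIC determined by broth dilution per CLSI M7-A7 guidelines with M100-S18 interpretive standards. Test organism: wild-type Pseudomonas aeruginosa UI-18, designated PA-7.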

[2] = tested on: Escherichia coli EC-1: VOGEL, mouse virulent; experiment: MIC determination (CLSI), strain EC-1; assay type: cell-based; details: strain EC-1, unit assumed
In short: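 The mouse-virulent VOGEL isolate of E. coli, EC-1, served as test organism. Minimum inhibitory concentration was measured by CLSI dilution methodology (M7-A7; M100-S18 standards).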

[3] = generated in the same manner as in Table 4

Compound `CC(CCn1ccc(-c2cc(O)ccc2Cl)cc1=O)(C(=O)NO)S(C)(=O)=O` (stereo not drawn) [Example 204, 4-[4-(2-chloro-5-hydroxyphenyl)-2-oxopyridin-1(2H)-yl]-N-hydroxy-2-methyl-2-(methylsulfonyl)butanamide] has a PA-7 (MIC) [1] greater than 64 µg/mL and an EC-1 (MIC) [2] of 64 µg/mL.
`CC(CCn1ccc(-c2ccc(-c3ccc(S(N)(=O)=O)cc3)cc2)cc1=O)(C(=O)NO)S(C)(=O)=O` (stereo not drawn) [Example 278, 4-{4-[4′-(aminosulfonyl)biphenyl-4-yl]-2-oxopyridin-1(2H)-yl}-N-hydroxy-2-methyl-2-(methylsulfonyl)butanamide] was tested, and the PA-7 (MIC) [1] was 16 µg/mL and the EC-1 (MIC) [2] was 2 µg/mL.
`CC(CCn1ccc(-c2ccc(Oc3ccccc3)cc2)cc1=O)(C(=O)NO)S(C)(=O)=O` (stereo not drawn) [Example 156, N-hydroxy-2-methyl-2-(methylsulfonyl)-4-[2-oxo-4-(4-phenoxyphenyl)pyridin-1(2H)-yl]butanamide] was tested, and the PA-7 (MIC) [1, 3] was 4 µg/mL and the EC-1 (MIC) [2, 3] was less than 0.06 µg/mL.
For `Cc1nnc(C)n1-c1ccc(-c2ccn(CC[C@](C)(C(=O)NO)S(C)(=O)=O)c(=O)c2)cc1` [Example 382, (2R)-4-{4-[4-(3,5-dimethyl-4H-1,2,4-triazol-4-yl)phenyl]-2-oxopyridin-1(2H)-yl}-N-hydroxy-2-methyl-2-(methylsulfonyl)butanamide], the PA-7 (MIC) [1] was greater than 64 µg/mL and the EC-1 (MIC) [2] was greater than 64 µg/mL.
`CC(CCn1ccc(-c2ccc(CO)cc2)cc1=O)(C(=O)NO)S(C)(=O)=O` (stereo not drawn) [Example 72, N-hydroxy-4-{4-[4-(hydroxymethyl)phenyl]-2-oxopyridin-1(2H)-yl}-2-methyl-2-(methylsulfonyl)butanamide] was tested, and the PA-7 (MIC) [1, 3] was 16 µg/mL and the EC-1 (MIC) [2, 3] was greater than 64 µg/mL.
In the case of `C[C@@](CCn1ccc(-c2ccc(Oc3ncccc3Cl)cc2)cc1=O)(C(=O)NO)S(C)(=O)=O` [Example 440, (2R)-4-[4-{4-[(3-chloropyridin-2-yl)oxy]phenyl}-2-oxopyridin-1(2H)-yl]-N-hydroxy-2-methyl-2-(methylsulfonyl)butanamide], the PA-7 (MIC) [1] is reported as 2 µg/mL and the EC-1 (MIC) [2] is reported as 0.06 µg/mL.
`C[C@@](CCn1ccc(-c2ccc(OCCCCCO)cc2)cc1=O)(C(=O)NO)S(C)(=O)=O` [Example 280, (2R)-N-hydroxy-4-[4-{4-[(5-hydroxypentyl)oxy]phenyl}-2-oxopyridin-1(2H)-yl]-2-methyl-2-(methylsulfonyl)butanamide] showed a PA-7 (MIC) [1] of 0.5 µg/mL and an EC-1 (MIC) [2] of 0.25 µg/mL.
With `C[C@@](CCn1ccc(-c2ccc(SCCCCO)cc2)cc1=O)(C(=O)NO)S(C)(=O)=O` [Example 319] the PA-7 (MIC) [1] was 1 µg/mL and the EC-1 (MIC) [2] was 0.25 µg/mL.
Work on `CC(CCn1ccc(-c2ccc3[nH]ccc3c2)cc1=O)(C(=O)NO)S(C)(=O)=O` (stereo not drawn) [Example 79] yielded a PA-7 (MIC) [1, 3] of 4 µg/mL and an EC-1 (MIC) [2, 3] of 4 µg/mL.
Work on `C[C@@](CCn1ccc(-c2ccc(-c3ccncc3)cc2)cc1=O)(C(=O)NO)S(C)(=O)=O` [Example 402, (2R)-N-hydroxy-2-methyl-2-(methylsulfonyl)-4-[2-oxo-4-(4-pyridin-4-ylphenyl)pyridin-1(2H)-yl]butanamide] yielded a PA-7 (MIC) [1] of 2 µg/mL and an EC-1 (MIC) [2] of 0.5 µg/mL.
`CC(CCn1ccc(-c2ccc(-c3ccncc3)c(F)c2)cc1=O)(C(=O)NO)S(C)(=O)=O` (stereo not drawn) [Example 298, 4-[4-(3-fluoro-4-pyridin-4-ylphenyl)-2-oxopyridin-1(2H)-yl]-N-hydroxy-2-methyl-2-(methylsulfonyl)butanamide] was tested, and the PA-7 (MIC) [1] was 4 µg/mL and the EC-1 (MIC) [2] was 0.5 µg/mL.
`C[C@@](CCn1ccc(-c2ccc(SCC#N)cc2)cc1=O)(C(=O)NO)S(C)(=O)=O` [Example 355, (2R)-4-[4-{4-[(cyanomethyl)thio]phenyl}-2-oxopyridin-1(2H)-yl]-N-hydroxy-2-methyl-2-(methylsulfonyl)butanamide] gave a PA-7 (MIC) [1] of 2 µg/mL and an EC-1 (MIC) [2] of 4 µg/mL.
In the case of `COc1ccc(-c2ccn(CC[C@](C)(C(=O)NO)S(C)(=O)=O)c(=O)c2C)cc1` [Example 397, (2R)-N-hydroxy-4-[4-(4-methoxyphenyl)-3-methyl-2-oxopyridin-1(2H)-yl]-2-methyl-2-(methylsulfonyl)butanamide], the PA-7 (MIC) [1] is reported as 1 µg/mL and the EC-1 (MIC) [2] is reported as 0.25 µg/mL.
With `Cc1cn(CCC(C)(C(=O)NO)S(C)(=O)=O)c(=O)cc1-c1ccccc1` (stereo not drawn) [Example 284, N-hydroxy-2-methyl-4-(5-methyl-2-oxo-4-phenylpyridin-1(2H)-yl)-2-(methylsulfonyl)butanamide] the PA-7 (MIC) [1] was 64 µg/mL and the EC-1 (MIC) [2] was 32 µg/mL.
`CC(CCn1ccc(-c2cc3ccccc3[nH]2)cc1=O)(C(=O)NO)S(C)(=O)=O` (stereo not drawn) [Example 91] gave a PA-7 (MIC) [1, 3] of 16 µg/mL and an EC-1 (MIC) [2, 3] of 4 µg/mL.
With `Cc1nncn1-c1ccc(-c2ccn(CC[C@](C)(C(=O)NO)S(C)(=O)=O)c(=O)c2)cc1` [Example 383, (2R)-N-hydroxy-2-methyl-2-(methylsulfonyl)-4-{4-[4-(3-methyl-4H-1,2,4-triazol-4-yl)phenyl]-2-oxopyridin-1(2H)-yl}butanamide] the PA-7 (MIC) [1] was greater than 64 µg/mL and the EC-1 (MIC) [2] was greater than 64 µg/mL.
Compound `Cc1cc(F)ccc1-c1ccn(CCC(C)(C(=O)NO)S(C)(=O)=O)c(=O)c1` (stereo not drawn) [Example 122, 4-[4-(4-fluoro-2-methylphenyl)-2-oxopyridin-1(2H)-yl]-N-hydroxy-2-methyl-2-(methylsulfonyl)butanamide] has a PA-7 (MIC) [1, 3] of 8 µg/mL and an EC-1 (MIC) [2, 3] of 16 µg/mL.
`C[C@@](CCn1ccc(-c2ccc(OC(F)(F)F)cc2)cc1=O)(C(=O)NO)S(C)(=O)=O` [Example 391, (2R)-N-hydroxy-2-methyl-2-(methylsulfonyl)-4-{2-oxo-4-[4-(trifluoromethoxy)phenyl]pyridin-1(2H)-yl}butanamide] showed a PA-7 (MIC) [1] of 0.5 µg/mL and an EC-1 (MIC) [2] of 0.25 µg/mL.
Compound `CC(CCn1ccc(-c2cccc3cccnc23)cc1=O)(C(=O)NO)S(C)(=O)=O` (stereo not drawn) [Example 189, N-hydroxy-2-methyl-2-(methylsulfonyl)-4-(2-oxo-4-quinolin-8-ylpyridin-1(2H)-yl)butanamide] has a PA-7 (MIC) [1] of 64 µg/mL and an EC-1 (MIC) [2] greater than 64 µg/mL.
Work on `CC(CCn1ccc(-c2cccc(Cl)c2)cc1=O)(C(=O)NO)S(C)(=O)=O` (stereo not drawn) [Example 114, 4-[4-(3-chlorophenyl)-2-oxopyridin-1(2H)-yl]-N-hydroxy-2-methyl-2-(methylsulfonyl)butanamide] yielded a PA-7 (MIC) [1, 3] of 4 µg/mL and an EC-1 (MIC) [2, 3] of 2 µg/mL.
Work on `CC(CCn1ccc(-c2ccc(-c3ccccc3)c(F)c2)cc1=O)(C(=O)NO)S(C)(=O)=O` (stereo not drawn) [Example 197, 4-[4-(2-fluorobiphenyl-4-yl)-2-oxopyridin-1(2H)-yl]-N-hydroxy-2-methyl-2-(methylsulfonyl)butanamide] yielded a PA-7 (MIC) [1] of 2 µg/mL and an EC-1 (MIC) [2] of 0.25 µg/mL.
Work on `CC(CCn1ccc(-c2ccc(-c3cccnc3)cc2F)cc1=O)(C(=O)NO)S(C)(=O)=O` (stereo not drawn) [Example 295, 4-[4-(2-fluoro-4-pyridin-3-ylphenyl)-2-oxopyridin-1(2H)-yl]-N-hydroxy-2-methyl-2-(methylsulfonyl)butanamide] yielded a PA-7 (MIC) [1] of 8 µg/mL and an EC-1 (MIC) [2] of 1 µg/mL.
`C[C@@](CCn1ccc(-c2ccc(-n3cncn3)cc2)cc1=O)(C(=O)NO)S(C)(=O)=O` [Example 371, (2R)-N-hydroxy-2-methyl-2-(methylsulfonyl)-4-{2-oxo-4-[4-(1H-1,2,4-triazol-1-yl)phenyl]pyridin-1(2H)-yl}butanamide] showed a PA-7 (MIC) [1] of 8 µg/mL and an EC-1 (MIC) [2] of 32 µg/mL.
`CC(CCn1ccc(-c2cc(Cl)cc(Cl)c2)cc1=O)(C(=O)NO)S(C)(=O)=O` (stereo not drawn) [Example 216, 4-[4-(3,5-dichlorophenyl)-2-oxopyridin-1(2H)-yl]-N-hydroxy-2-methyl-2-(methylsulfonyl)butanamide] gave a PA-7 (MIC) [1] of 8 µg/mL and an EC-1 (MIC) [2] of 4 µg/mL.
Compound `CC(CCn1ccc(-c2cc3nccc(Cl)c3s2)cc1=O)(C(=O)NO)S(C)(=O)=O` (stereo not drawn) [Example 128, 4-[4-(7-chlorothieno[3,2-b]pyridin-2-yl)-2-oxopyridin-1(2H)-yl]-N-hydroxy-2-methyl-2-(methylsulfonyl)butanamide] has a PA-7 (MIC) [1, 3] of 64 µg/mL and an EC-1 (MIC) [2, 3] of 32 µg/mL.
In the case of `C[C@@](CCn1ccc(-c2ccc(OCCC[C@@H](O)CO)cc2)cc1=O)(C(=O)NO)S(C)(=O)=O` [Example 365, (2R)-4-[4-(4-{[(4R)-4,5-dihydroxypentyl]oxy}phenyl)-2-oxopyridin-1(2H)-yl]-N-hydroxy-2-methyl-2-(methylsulfonyl)butanamide], the PA-7 (MIC) [1] is reported as 4 µg/mL and the EC-1 (MIC) [2] is reported as 4 µg/mL.
For `Cc1cc(F)cc(-c2ccn(CCC(C)(C(=O)NO)S(C)(=O)=O)c(=O)c2)c1` (stereo not drawn) [Example 112, 4-[4-(3-fluoro-5-methylphenyl)-2-oxopyridin-1(2H)-yl]-N-hydroxy-2-methyl-2-(methylsulfonyl)butanamide], the PA-7 (MIC) [1, 3] was 4 µg/mL and the EC-1 (MIC) [2, 3] was 4 µg/mL.
Compound `CC(CCn1ccc(-c2ccc(C#N)cc2)cc1=O)(C(=O)NO)S(C)(=O)=O` (stereo not drawn) [Example 198, 4-[4-(4-cyanophenyl)-2-oxopyridin-1(2H)-yl]-N-hydroxy-2-methyl-2-(methylsulfonyl)butanamide] has a PA-7 (MIC) [1] of 8 µg/mL and an EC-1 (MIC) [2] of 16 µg/mL.
Compound `C[C@@](CCn1ccc(-c2ccc(-n3cnnn3)cc2)cc1=O)(C(=O)NO)S(C)(=O)=O` [Example 421, (2R)-N-hydroxy-2-methyl-2-(methylsulfonyl)-4-{2-oxo-4-[4-(1H-tetrazol-1-yl)phenyl]pyridin-1(2H)-yl}butanamide] has a PA-7 (MIC) [1] of 64 µg/mL and an EC-1 (MIC) [2] greater than 64 µg/mL.
Work on `CC(CCn1ccc(-c2ccc(OCCCCO)c(Cl)c2)cc1=O)(C(=O)NO)S(C)(=O)=O` (stereo not drawn) [Example 238, 4-{4-[3-chloro-4-(4-hydroxybutoxy)phenyl]-2-oxopyridin-1(2H)-yl}-N-hydroxy-2-methyl-2-(methylsulfonyl)butanamide] yielded a PA-7 (MIC) [1] of 4 µg/mL and an EC-1 (MIC) [2] of 0.5 µg/mL.
Work on `COc1cc(OCCCCO)ccc1-c1ccn(CCC(C)(C(=O)NO)S(C)(=O)=O)c(=O)c1` (stereo not drawn) [Example 245] yielded a PA-7 (MIC) [1] of 64 µg/mL and an EC-1 (MIC) [2] of 64 µg/mL.
For `C[C@@](CCn1ccc(-c2cc(F)cc(Cl)c2Cl)cc1=O)(C(=O)NO)S(C)(=O)=O` [Example 451, (2R)-4-[4-(2,3-dichloro-5-fluorophenyl)-2-oxopyridin-1(2H)-yl]-N-hydroxy-2-methyl-2-(methylsulfonyl)butanamide], the PA-7 (MIC) [1] was 4 µg/mL and the EC-1 (MIC) [2] was 4 µg/mL.
For `CC(CCn1ccc(-c2ccc(OCCCCO)cc2F)cc1=O)(C(=O)NO)S(C)(=O)=O` (stereo not drawn) [Example 241], the PA-7 (MIC) [1] was 2 µg/mL and the EC-1 (MIC) [2] was 2 µg/mL.

From patent US8846933B2, “N-link hydroxamic acid derivatives useful as antibacterial agents” (Pfizer Inc., priority 2009, dated 2014)
